38 molecules from patent publication US9447116B2, “Inhibitors of HIV replication” (priority 2010, dated 2016) can be followed below.

Like-named read-outs stand apart in the source and are kept apart here. Bounds are passed on as bounds.

In assay [1] the target is T1, LEDGF-Integrase interaction (Human immunodeficiency virus type 1 group M subtype B, UniProt P12497).
T1 construct: His6-tagged integrase (78 nM final concentration); purchased Prof; Zeger Debyser, Katholieke Universiteit Leuven (supplied by an academic laboratory, not a commercial vendor)
Nature of the assay: HTRF Interaction assay (S9118). The arrangement: species or system HIV. The note with it: His6-tagged integrase and MBP-LEDGF integrase binding domain. The text has this:
• Adachi, A., Gendelman, H., Koenig, S., Folks, T., Wiley, R., Rabson, A. and Martin, M (1986) Production of acquired immunodeficency syndrome-associated retrovirus in human and nonhuman cells transfected with an infectious molecular clone, J. Virol., 59, 284-291. • Cao J, Isaacson J, Patick A K, Blair W S. (2005) High-throughput human immunodeficiency virus type 1 (HIV-1) full replication assay that includes HIV-1 Vif as an antiviral target Antimicrobial Agents and Chemotherapy; 49(9), p 3833-3841. Assay to Measure the LEDGF-Integrase Integration Inhibitory Activity of Compounds of the Invention HTRF Interaction Assay (S9118)
An Homogeneous Time Resolved Fluorescence (HTRF) assay is performed in a manner similar to previous reports on HTRF protein assays as reviewed by Mathis (Clin. Chem., 2005). The assay procedure is performed as follows: reactions are performed in 20 μl final volume in 384-well black low volume microtiter plates (Greiner). The final reaction buffer contains 29 mM phosphase buffer (pH 7), 10 mM HEPES buffet (pH 7.4), 68.5 mM NaCl, 1.4 mM KCl, 400 mM KF 0.05% (w/v) pluronic acid (P104, Sigma Aldrich) and 1% (v/v) DMSO. His6-tagged integrase (78 nM final concentration) is incubated with […] fused to the Δ325 carboxy terminal integrase binding domain of LEDGF in the presence of compound for 2 hours at room temperature. Both these protein regents are supplied by Prof. Zeger Debyser of Katholleke Universiteit Leuven, Leuven, Belgium. The compounds are added at varying concentrations spanning a wide range from 0.1 up to 100 μM. Afterwards 8.3 nM of europium cryptate conjugated anti-MBP monoclonal antibody and 17 nM anti-His antibody conjugated with the acceptor fluorophore d2. Following a 2 hour room temperature incubation the plates are read on an EnVision™ microplate reader (Perkin Elmer) using an excitation wavelength of 320 nm. The ratio of fluorescence emitted at […] is used to assess the degree to which the protein-protein interaction had been inhibited.

For assay [2], the system named is HIV-1 virus (NL4.3 strain). The assay is described as follows: MT-2 based antiviral assay (S8737E). In kind it is cell-based. The text has this: MT-2 Based Antiviral Assay (S8737E)
This assay is designed to determine the effects of small molecules on the replication of HIV-1 in the lymphobastoid cell line, MT2, and is able to detect the antiviral effect of compounds acting at any stage of the HIV-1 replication cycle. The assay, along with its associated cytotoxicity assay, was described in detail in 2005 in a paper by Cao et al (Antimicrobial Agents and Chemotherapy 2005; 49(9), p 3833-3841).
MT2 cells are infected with the HIV-1 virus (NL4.3 strain; Adachi et al., Journal of Virology 1986) and transferred to assay plates containing serial dilutions of compounds to be tested. The assay plates are incubated for 3 days (MT2) to allow for several rounds of viral replication/infection to take place. At the end of this time, supernatant is transferred into new plates containing JC53BL cells.
JC53BL cells express CXCR4, CCR5 and CD4 receptors, and HIV-1-LTR-β-Gal. Under normal culture conditions undetectable levels of β-Galactosidase are expressed, but in the presence of HIV-1, the viral Tat protein is able to activate the HIV-1-LTR in the JC53BL cells resulting in the increased expression of the β-Gal enzyme. The expression can be measured using the ‘FluorAce β-Galactosidase reporter’ assay. The levels of β-Gal are directly proportional to the levels of Tat (up to a threshold) allowing virus quantification. Compounds that inhibit virus replication will give rise to a reduced signal and a dose-response curve for each compound can be generated. This is then used to determine the IC50 for each compound, a measure of the compound's potency.

Setting [3] is: Human immunodeficiency virus 1, 72 h, read-out: Antiviral Activity (S8737E, μM), HIV-1 NL4.3 replication in MT2 cells, 3 days, β-Gal readout in JC53BL cells.

`Cc1ccc(-c2c([C@@H](OC(C)(C)C)C(=O)O)c(C)nc3sc4c(c23)CCCC4)c(O)c1` (single isomer, unassigned) [48, first eluting enantiomer]: the IC50 was 4.12 µM in assay [1] and 0.089 µM in assay [2] (setting [3]).

Regarding `Cc1ccc(-c2c(C(OC(C)(C)C)C(=O)O)c(C)nc3sc4c(c23)CCCC4)c(O)c1` (single isomer, unassigned) [48, second eluting enantiomer], the IC50 in assay [1] was determined as 0.576 µM; in assay [2] (setting [3]) it was 0.013 µM.

For `Cc1nc2sc3c(c2c(-c2ccc(Cl)cc2O)c1[C@H](OC(C)(C)C)C(=O)O)CCCC3` (single isomer, unassigned) [Atropisomer 46A], the IC50 in assay [1] came to 0.558 µM; in assay [2] (setting [3]), 0.014 µM.

In the case of `Cc1nc2sc3c(c2c(-c2cncnc2)c1C(OC(C)(C)C)C(=O)O)CCCC3` (stereo not drawn) [Example 1, Tert-butoxy(2-methyl-4-pyrimidin-5-yl-5,6,7,8-tetrahydro[1]benzothieno[2,3-b]pyridin-3-yl)acetic acid], the IC50 in assay [2] (setting [3]) was more than 20 µM. `Cc1nc2sc3c(c2c(-c2ccc4scnc4c2)c1C(OC(C)(C)C)C(=O)O)CCCC3` (stereo not drawn) [Example 4]: the IC50 in assay [1] (table values) stood at 3.48 µM; in assay [2] (setting [3]), 0.282 µM.

Take `CCc1ccc(-c2c(C(OC(C)(C)C)C(=O)O)c(C)nc3sc4c(c23)CCCC4)c(O)c1` (stereo not drawn) [Example 5]: the IC50 was found to be 2.7 µM in assay [1] (table values) and 0.155 µM in assay [2] (setting [3]). For `Cc1nc2sc3c(c2c(-c2ccc4cn[nH]c4c2)c1C(OC(C)(C)C)C(=O)O)CCCC3` (stereo not drawn) [Example 6] the same measures were 2.63 µM and 0.305 µM.

With `COc1ccc(-c2c(C(OC(C)(C)C)C(=O)O)c(C)nc3sc4c(c23)CCCC4)cn1` (stereo not drawn) [Example 7], the results for the IC50 in assay [1] (table values) and in assay [2] (setting [3]) were 9.25 µM and 0.436 µM, respectively.

`CCn1cc(-c2c(C(OC(C)(C)C)C(=O)O)c(C)nc3sc4c(c23)CCCC4)cn1` (stereo not drawn) [Example 8]: the IC50 in assay [1] (table values) was 23.8 µM; in assay [2] (setting [3]), 0.624 µM.

As for `Cc1nc2sc3c(c2c(-c2ccc(C(F)(F)F)nc2)c1C(OC(C)(C)C)C(=O)O)CCCC3` (stereo not drawn) [Example 9], the IC50 in assay [1] (table values) came to 11.7 µM; in assay [2] (setting [3]) it was 0.683 µM. For `Cc1nc2sc3c(c2c(-c2ccc4cnn(C)c4c2)c1C(OC(C)(C)C)C(=O)O)CCCC3` (stereo not drawn) [Example 10] the same measures were 7.87 µM and 0.795 µM. Consider `Cc1nc2sc3c(c2c(-c2ccc4cnn(C)c4c2)c1C(OC(C)(C)C)C(=O)O)CCCC3` (stereo not drawn) [Example 11], for which the IC50 in assay [1] (table values) is 12.2 µM; in assay [2] (read-out: Antiviral Activity (S8737E), HIV-1 NL4.3 replication in MT2 cells, 3 days, β-Gal readout in JC53BL cells), 0.814 µM. Take `Cc1nc2sc3c(c2c(-c2ccc4c(cnn4C)c2)c1C(OC(C)(C)C)C(=O)O)CCCC3` (stereo not drawn) [Example 12]: the figures for the IC50 in assay [1] (table values) and in assay [2] (setting [3]) were 5.13 µM and 0.941 µM, respectively. As for `Cc1nc2sc3c(c2c(-c2ccccc2CO)c1C(OC(C)(C)C)C(=O)O)CCCC3` (stereo not drawn) [Example 13], the IC50 in assay [1] (table values) came to 56.3 µM; in assay [2] (setting [3]), 0.957 µM.

As to `COc1cc(-c2c(C(OC(C)(C)C)C(=O)O)c(C)nc3sc4c(c23)CCCC4)ccn1` (stereo not drawn) [Example 14], the IC50 in assay [1] (table values) amounted to 28.4 µM; in assay [2] (setting [3]) it was 1.24 µM. The matching figures for `Cc1nc2sc3c(c2c(-c2ccc(C#N)cc2)c1C(OC(C)(C)C)C(=O)O)CCCC3` (stereo not drawn) [Example 15]: 14.8 µM and 1.28 µM. The matching figures for `Cc1nc2sc3c(c2c(-c2ccccc2O)c1C(OC(C)(C)C)C(=O)O)CCCC3` (stereo not drawn) [Example 16]: 57.4 µM and 1.73 µM. Turning to `Cc1nc2sc3c(c2c(-c2ccc4nccn4c2)c1C(OC(C)(C)C)C(=O)O)CCCC3` (stereo not drawn) [Example 17], the IC50 in assay [1] (table values) was more than 100 µM; in assay [2] (setting [3]) it was 1.78 µM.

As to `Cc1nc2sc3c(c2c(-c2cnc4ccoc4c2)c1C(OC(C)(C)C)C(=O)O)CCCC3` (stereo not drawn) [Example 18], the IC50 worked out at 30.3 µM in assay [1] (table values) and 1.84 µM in assay [2] (setting [3]). For `Cc1nc2sc3c(c2c(-c2cccc(-c4nccn4C)c2)c1C(OC(C)(C)C)C(=O)O)CCCC3` (stereo not drawn) [Example 19] the same measures were 46.5 µM and 1.9 µM. The matching figures for `Cc1nc2cc(-c3c(C(OC(C)(C)C)C(=O)O)c(C)nc4sc5c(c34)CCCC5)ccc2s1` (stereo not drawn) [Example 20]: 11.8 µM and 2.01 µM. Regarding `CCOC(C(=O)O)c1c(C)nc2sc3c(c2c1-c1ccc2nsnc2c1)CCCC3` (stereo not drawn) [Example 21], the IC50 stood at 64.8 µM in assay [1] (table values) and 2.17 µM in assay [2] (setting [3]).

Consider `Cc1nc2ccc(-c3c(C(OC(C)(C)C)C(=O)O)c(C)nc4sc5c(c34)CCCC5)cc2s1` (stereo not drawn) [Example 22], for which the IC50 stood at 12.8 µM in assay [1] (table values) and 2.73 µM in assay [2] (setting [3]). For `CCOC(C(=O)O)c1c(C)nc2sc3c(c2c1-c1ccc2cn[nH]c2c1)CCCC3` (stereo not drawn) [Example 23] the same measures were 33.1 µM and 2.73 µM. For `Cc1nc2sc3c(c2c(-c2cccc4c2cnn4C)c1C(OC(C)(C)C)C(=O)O)CCCC3` (stereo not drawn) [Example 24] the same measures were 7.59 µM and 2.81 µM. For `CCOC(C(=O)O)c1c(C)nc2sc3c(c2c1-c1ccccc1O)CCCC3` (stereo not drawn) [Example 25] the same measures were more than 100 µM and 4.07 µM. `Cc1nc2sc3c(c2c(-c2cccc(C#N)c2)c1C(OC(C)(C)C)C(=O)O)CCCC3` (stereo not drawn) [Example 26]: the IC50 in assay [1] (table values) is more than 100 µM; in assay [2] (setting [3]), 4.51 µM. For `Cc1nc2sc3c(c2c(-c2cccc(CO)c2)c1C(OC(C)(C)C)C(=O)O)CCCC3` (stereo not drawn) [Example 27] the same measures were 57.5 µM and 4.64 µM. For `Cc1cc(C)n(-c2cccc(-c3c(C(OC(C)(C)C)C(=O)O)c(C)nc4sc5c(c34)CCCC5)c2)n1` (stereo not drawn) [Example 28] the same measures were 29.6 µM and 5.61 µM. The matching figures for `Cc1nc2sc3c(c2c(-c2ccc(N(C)C)nc2)c1C(OC(C)(C)C)C(=O)O)CCCC3` (stereo not drawn) [Example 29]: 64.6 µM and 5.73 µM.

Consider `Cc1nc2sc3c(c2c(-c2cnc4cc[nH]c4c2)c1C(OC(C)(C)C)C(=O)O)CCCC3` (stereo not drawn) [Example 30], for which the IC50 in assay [1] (table values) stood at 15.5 µM; in assay [2] (setting [3]), 6.63 µM. On to `CCOC(C(=O)O)c1c(C)nc2sc3c(c2c1-c1ccc2scnc2c1)CCCC3` (stereo not drawn) [Example 31], for which the figures for the IC50 in assay [1] (table values) and in assay [2] (setting [3]) were more than 100 µM and 6.66 µM, respectively. As for `Cc1nc2sc3c(c2c(-c2ccc4[nH]ncc4c2)c1C(OC(C)(C)C)C(=O)O)CCCC3` (stereo not drawn) [Example 32], the IC50 in assay [1] (table values) is more than 100 µM; in assay [2] (setting [3]) it was 7.65 µM. The matching figures for `CCOC(C(=O)O)c1c(C)nc2sc3c(c2c1-c1ccc(C(F)(F)F)nc1)CCCC3` (stereo not drawn) [Example 33]: more than 100 µM and 8.19 µM. For the molecule `CCOC(C(=O)O)c1c(C)nc2sc3c(c2c1-c1ccccc1CO)CCCC3` (stereo not drawn) [Example 34], the IC50 in assay [1] (table values) was more than 100 µM; in assay [2] (setting [3]), 8.97 µM.

For `CCOC(C(=O)O)c1c(C)nc2sc3c(c2c1-c1ccc2cnn(C)c2c1)CCCC3` (stereo not drawn) [Example 35], the results for the IC50 in assay [1] (table values) and in assay [2] (setting [3]) were more than 100 µM and 10.7 µM, respectively. For `Cc1nc2sc3c(c2c(-c2c[nH]c4nccc-4c2)c1C(OC(C)(C)C)C(=O)O)CCCC3` (stereo not drawn) [Example 36] the same measures were more than 100 µM and 12 µM. For `Cc1cc(-c2c(C(OC(C)(C)C)C(=O)O)c(C)nc3sc4c(c23)CCCC4)ccn1` (stereo not drawn) [Example 37] the same measures were more than 100 µM and 13.9 µM.
